Laboratory results reported in patent publication US20240390434A1, “PROBIOTIC ENHANCERS AND USES THEREOF” (Blis Technologies Limited, priority 2021, published 2024).

Tests used:
Assay type in all cases: cell-based
[1] = system: S. aureus A222; test: Deferred antagonism assay, producer S. salivarius K12; conditions: K12
Experimental: (§1) 1-2 producer strain colonies were transferred from a stock plate into 900 μL of suspension solution using a fresh cotton swab. Following this, suspensions were vortexed, and a sample was inoculated onto solid culture media using a fresh cotton swab. The inoculation was a streak that runs diametrically across the agar plate in a 1.5 cm wide strip. The plate was then incubated. Following incubation all visible colonies were removed by swabbing them from the agar surface. The plates were then treated with chloroform by dispensing 2 ml of chloroform onto 4 cm×4 cm piece of cloth and sealing the inverted agar plate on top for 30 minutes. The plates were then air dried for 30 minutes following chloroforming. 1-2 indicator strain colonies were then transferred from a stock plate into complementary suspension solution. The suspensions were then vortexed, and a sample was inoculated onto the same agar surface. These samples were streaked in a perpendicular direction to the initial producer streak.
(§2) Each indicator streak was prepared with fresh a suspension containing cells from a corresponding stock plate containing the indicator strain of interest. Indicator strains suspension samples were transferred using a fresh cotton swab. Results were measured by qualitatively reviewing the subsequent (if any) sizes of the zones of inhibition (ZOI) of indicator strain colony growth. A positive result is when there is a distinctive reduction or complete inhibition of indicator colony growth on the culture medium.
(§3) CABCa agar plates containing various concentrations of saccharide were prepared according to the methods described in Method 1. Producer strains were transferred from stock agar plates into 900 μL THB using a fresh cotton swab. A plastic spread plater was cut to approximately 1.2 cm width and then dipped into ethanol and left to air dry to ensure sterility. A 100 μL sample of the producer strain suspension was then dispensed onto the agar surface in a straight line running diametrically across the agar surface in (approximately) 20 μL spots. The spots were spaced approximately 1.5 cm apart from each other. The plastic spreader was then used to evenly distribute the spots across the agar surface in a 1.5 cm wide strip. This step was taken to ensure an even producer streak was inoculated onto the agar surface and provided an approximate measure of the initial inoculum concentration. Separate plastic spreaders were used for samples containing different producer strains. The samples were left to soak into the agar surface until there was no visible liquid remaining on the agar surface (approximately 20 minutes). Following producer streak preparations, the deferred antagonism assay protocol was followed as per Method 2. Results were recorded by measuring the size of the zone of inhibition (ZOI) in mm.
(§4) A dose response assay was carried out according to method 3 above, except a 1.2 cm streak was used. For the individual saccharide testing the pH of the producer streak was adjusted after the growth of producer to change the acidic conditions.
(§5) A deferred antagonism assay was conducted using K12 or M18 raw ingredient suspended in Todd Hewitt broth (THB). This was spread as a 1.2 cm streak containing approximately 1-2×10^6 cfu down the middle of a CABCa control or CABCa galactose supplemented test plate. After 18 hrs growth at 37° C. with 5% CO2, bacterial growth was removed, and the pH of the agar in the initial streak was measured and adjusted to a pH of 6.5-7.5 using 0.5M sodium carbonate pH11 before sterilizing the agar surface using chloroform vapor. Bacterial test strains were suspended in i-THB before being swabbed across the plates perpendicular to the initial streak. Plates were incubated for a further 18 hrs incubation at 37° C. with 5% CO2 before measuring (mm) any zones of inhibition for each test strain, […]

[2] = system: S. constellatus T29; test: as above; conditions: Streptococcus constellatus, T29, K12, read-out: Size of zone inhibition normalised to control, S. constellatus T29
Experimental: as §1, §2, §3, §4, §5

[3] = system: S. pneumoniae D39; test: as above; conditions: Streptococcus pneumoniae, D39, K12, read-out: Size of zone inhibition normalised to control, S. pneumoniae D39
Experimental: as §1, §2, §3, §4, §5

[4] = system: S. pyogenes 71-698; test: as above; conditions: Streptococcus pyogenes, 71698, K12, read-out: Size of zone inhibition normalised to control, S. pyogenes 71-698
Experimental: as §1, §2, §3, §4, §5

[5] = system: S. saprophyticus ATCC 15305; test: as above; conditions: Staphylococcus saprophyticus, ATCC15305, K12, read-out: Size of zone inhibition normalised to control, S. saprophyticus ATCC 15305
Experimental: as §1, §2, §3, §4, §5

[6] = system: halitosis-causing gram-negative bacteria F. nucleatum, P. gingivalis and P. intermedia; test: Deferred antagonism assay (anaerobic), producer K12; conditions: 2.5% w/w raffinose; 0.5% w/w galactose; or combination
Experimental: Method: CABCa agar plates were prepared with or without 2.5% w/w raffinose, 0.5% w/w galactose or a combination of both saccharides by the addition of 0.5% (w/v) calcium carbonate to solid CAB agar in bottles and then melted by autoclaving at 110° C. for 10 mins. Once cooled, filter sterilised solutions of the saccharides or distilled water were added and mixed and then 20 ml pipetted into petri dishes.
A deferred antagonism assay was conducted using K12 or M18 raw ingredient suspended in THB. This was spread as a 1.2 cm streak containing approximately 1-2×10^6 cfu down the middle of a CABCa control or CABCa galactose supplemented test plate. After 18 hrs growth at 37° C., 5% CO2 in air, bacterial growth was removed, and the pH of the agar in the initial streak was measured and adjusted to a pH of 6.5-7.5 using 0.5M sodium carbonate pH11 before sterilizing the agar surface using chloroform vapor. Bacterial test strains were suspended in THB and swabbed across the plates perpendicular to the initial streak and then the plates were incubated at 37° C. in an anaerobic jar containing an anaeroGen sachet for 4 days. Zones of inhibition for each test strain were then measured (mm).

For O=C[C@H](O)[C@@H](O)[C@@H](O)[C@H](O)CO [Galactose, D-galactose], the “Inhibitory activity of S. salivarius K12 in presence of saccharides, S. aureus A222” value ([1]; saccharide range 0.83%-3.3% w/v) was “✓”, the zone of inhibition at 0.5 % strength ([1]; Staphylococcus aureus, A222, Galactose 0.5% w/w, read-out: Size of zone inhibition normalised to control, S. aureus A222) was 12 mm and the zone of inhibition at 1.25 % strength ([1]; Staphylococcus aureus, A222, Galactose 1.25% w/w, read-out: Size of zone inhibition normalised to control, S. aureus A222) was 8 mm. It also gave a zone of inhibition at 1.7 % strength ([1]; Staphylococcus aureus, A222, Galactose 1.7% w/w, read-out: Size of zone inhibition normalised to control, S. aureus A222) of 9 mm, a zone of inhibition at 2.5 % strength ([1]; Staphylococcus aureus, A222, Galactose 2.5% w/w, read-out: Size of zone inhibition normalised to control, S. aureus A222) of 6 mm and a zone of inhibition at 3.3 % strength ([1]; Staphylococcus aureus, A222, Galactose 3.3% w/w, read-out: Size of zone inhibition normalised to control, S. aureus A222) of 0 mm. The zone of inhibition at 5 % strength ([1]; Staphylococcus aureus, A222, Galactose 5% w/w, read-out: Size of zone inhibition normalised to control, S. aureus A222) was 0 mm, the zone of inhibition at 0.5 % strength ([2]; Galactose 0.5% w/w) was 14 mm and the zone of inhibition at 1.25 % strength ([2]; Galactose 1.25% w/w) was 15 mm. The zone of inhibition at 1.7 % strength ([2]; Galactose 1.7% w/w) was 12 mm, the zone of inhibition at 2.5 % strength ([2]; Galactose 2.5% w/w) was 13 mm and the zone of inhibition at 3.3 % strength ([2]; Galactose 3.3% w/w) was 10 mm. For the same molecule, the zone of inhibition at 5 % strength ([2]; Galactose 5% w/w) was 0 mm, the zone of inhibition at 0.5 % strength ([3]; Galactose 0.5% w/w) was 8 mm and the zone of inhibition at 1.25 % strength ([3]; Galactose 1.25% w/w) was 3 mm. The zone of inhibition at 1.7 % strength ([3]; Galactose 1.7% w/w) was 2 mm, the zone of inhibition at 2.5 % strength ([3]; Galactose 2.5% w/w) was 6 mm and the zone of inhibition at 3.3 % strength ([3]; Galactose 3.3% w/w) was 0 mm. For the same molecule, the zone of inhibition at 5 % strength ([3]; Galactose 5% w/w) was 0 mm, the zone of inhibition at 0.5 % strength ([4]; Galactose 0.5% w/w) was 4.5 mm and the zone of inhibition at 1.25 % strength ([4]; Galactose 1.25% w/w) was 3.5 mm. For the same molecule, the zone of inhibition at 1.7 % strength ([4]; Galactose 1.7% w/w) was 3.5 mm, the zone of inhibition at 2.5 % strength ([4]; Galactose 2.5% w/w) was 5.5 mm and the zone of inhibition at 3.3 % strength ([4]; Galactose 3.3% w/w) was 1.5 mm. The zone of inhibition at 5 % strength ([4]; Galactose 5% w/w) was 0 mm, the zone of inhibition at 0.5 % strength ([5]; Galactose 0.5% w/w) was 0 mm and the zone of inhibition at 1.25 % strength ([5]; Galactose 1.25% w/w) was 0 mm. For the same molecule, the zone of inhibition at 1.7 % strength ([5]; Galactose 1.7% w/w) was 0 mm, the zone of inhibition at 2.5 % strength ([5]; Galactose 2.5% w/w) was 0 mm and the zone of inhibition at 3.3 % strength ([5]; Galactose 3.3% w/w) was 0 mm. The zone of inhibition at 5 % strength ([5]; Galactose 5% w/w) was 0 mm and the “antimicrobial activity of K12 against halitosis-causing gram-negative bacteria” value [6] was “did not induce antimicrobial activity”.
